Results published in US20240067651A1 (Biohaven Therapeutics Ltd., priority 2019, published 2024).

Columns and labels:
[1] = Stability in Simulated Gastric Fluid (SGF); format: in vitro ADME; design: key: % parent compound remaining relative to 0-minute sample
Procedure, shortened: (§1)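 Stability was tested at 37° C in pepsin-supplemented gastric fluid, pH 1.2, and pancreatin-supplemented intestinal fluid, pH 6.8, using 2 μg/mL final compound over 0–60 minutes. Remaining parent was quantified by LC-MS/MS and expressed as a percentage of time zero.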

[2] = Caco-2 Permeability Assay; format: in vitro ADME, human; conditions: human
Source text: The compounds of the invention may be tested for biological activity as MPO inhibitors by methods known to those skilled in the art. In addition, methods such as, for example, a Caco-2 assay, may be used to test the bioavailability of the compounds of the invention. A description of a Caco-2 permeability assay is as follows:
• The Caco-2 monolayer is widely used across the pharmaceutical industry as an in vitro model of the human small intestinal mucosa to predict the absorption of orally administered drugs.^1-4 • The Caco-2 cell model mimics processes such as transcellular transport, paracellular transport, and some aspects of efflux and active transport. • Readout: Papp (A→B), Papp (B→A), Efflux ratio, % Recovery • Controls: with and without Pgp inhibitor; Atenolol, Propanolol, Taxel-1
The Caco-2 cells are cultured to confluency, trypsinized and seeded onto a filter transwell insert at a density of ^˜32,000 cells/well in DMEM cell culture medium. Cells are grown in a humidified atmosphere of 5% CO2 at 37° C. Following an overnight attachment period (24 h after seeding), the cell medium is replaced with fresh medium in both the apical and basolateral compartments every other day. The cell monolayers are used for transport studies 21 days post seeding after measuring the TEER values ([…]). The apical sides and basolateral sides are washed consecutively with HBSS 2.5% (v/v), HEPES (pH 7.4) or HBSS 2.5% (v/v), HEPES 10% (v/v), and Fetal Bovine Serum (pH 7.4) at 37° C. in an incubator under an atmosphere of 5% CO2.
Donor working solution is prepared by dilution of DMSO stock of test article or positive control with transport media to 10 μM.
For A→B directional transport, the donor working solution (with test article or positive control, with or without Pgp inhibitor) is added to the apical (A) compartment and the transport media as receiver working solution is added to the basolateral (B) compartment. For B→A directional transport, the donor working solution (with positive control or test article, with or without Pgp inhibitor) is added to the basolateral (B) compartment and transport media as receiver working solution is added to the apical (A) compartment.
The cells are incubated in a humidified atmosphere of 5% CO2 at 37° C. for 90 minutes.
At the end of the incubation, samples are taken from both donor and receiver compartments and transferred into 96-well assay plates containing internal standard solution (IS) in each well. After centrifugation, the supernatant solutions are transferred to clean 96 well plates and analyzed by LC-MS/MS. The MS detection is performed using a Sciex API 4000 instrument. Each compound is analyzed by reversed phase HPLC.
The parameters Papp (apparent permeability) and efflux ratio are calculated as follows:
Papp=(dQ/dt)×(1/C0)×(1/A)
Efflux ratio=Papp[B→A]/Papp[A→B]
where dQ/dt is the permeability rate, C0 is the initial concentration in the donor compartment, and A is the surface area of the cell monolayer (0.33 cm^2). The Papp value is a rate measured in cm/s. Calculated Papp is ranked as low (<[…]), moderate (1-10×10^−6 cm/s), and high (>[…]).
Comparing the efflux ratios generated in the presence and absence of a Pgp inhibitor identifies whether the test article is a Pgp substrate.
Recovery is calculated as follows:
% Recovery=(Total compound mass in donor and receiver compartments at the end of the incubation/Initial compound mass in the donor compartment)×100.

[3] = Stability in Simulated Intestinal Fluid (SIF); format: in vitro ADME; design: key: % parent compound remaining relative to 0-minute sample
Procedure, shortened: as §1

Plasma Stability = format: in vitro ADME, human
Procedure, shortened: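 Compounds incubated at 1 μM in fresh human plasma for 1 hour at 37° C, then protein-precipitated with acetonitrile/formic acid containing internal standard. Remaining parent measured by LC-MS/MS in triplicate, expressed as percent of control remaining.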

[4] = % remaining at 1 h in simulated gastric fluid
[5] = Caco-2, pH 7.4, Caco-2 monolayer
[6] = % remaining at 1 h in simulated intestinal fluid
[7] = % remaining at 1 h in human plasma

SMILES	SGF [1, 4]	Papp at 90 min, 10 µM [2, 5] [×10⁻⁶ cm/s]	SIF [3, 6] [% remaining]	human Plasma stability (Plasma Stability; [7])	SGF ([1]; % remaining at 1 h, SGF with pepsin pH 1.2, 2 μg/mL, 37° C.) [%]	Papp at 90 min, 10 µM ([2]; Caco-2, pH 7.4, no unit printed at the place (tables the 9th table and the 10th table have no head)) [×10⁻⁶ cm/s]	SIF ([3]; % remaining at 1 h, SIF with pancreatin pH 6.8, 2 μg/mL, 37° C.) [%]	human Plasma stability (Plasma Stability; % remaining at 1 h, human plasma, 1 μM, 37° C.) [%]
CC(C)OCCn1c(=S)[nH]c(=O)c2c1ccn2COC(=O)CCCCNC(=O)[C@H](Cc1c[nH]c2ccccc12)NC(=O)OC(C)(C)C.O=C(O)C(F)(F)F [Example 47]	99% remaining	9.15	46	78% remaining				
CC(C)OCCn1c(=S)[nH]c(=O)c2c1ccn2COC(=O)CCNC(=O)[C@H](Cc1c[nH]c2ccccc12)NC(=O)OC(C)(C)C.O=C(O)C(F)(F)F [Example 48]	90% remaining	5.93	89	74% remaining				
CC(C)OCCn1c(=S)[nH]c(=O)c2c1ccn2COC(=O)CCCCNC(=O)[C@@H](N)Cc1ccc(O)cc1.O=C(O)C(F)(F)F [Example 49]	99% remaining	0.154	92	1% remaining				
CC(C)OCCn1c(=S)[nH]c(=O)c2c1ccn2COC(=O)CCNC(=O)[C@@H](N)Cc1ccc(O)cc1.O=C(O)C(F)(F)F [Example 50]	99% remaining	0.215	75	25% remaining				
CC(C)OCCn1c(=S)[nH]c(=O)c2c1ccn2COC(=O)CCCCNC(=O)[C@@H](N)Cc1c[nH]c2ccccc12.O=C(O)C(F)(F)F [Example 51]	94% remaining	0.519	83	2% remaining				
CC(C)OCCn1c(=S)[nH]c(=O)c2c1ccn2COC(=O)CCNC(=O)[C@@H](N)Cc1c[nH]c2ccccc12.O=C(O)C(F)(F)F [Example 52]	95% remaining	0.23	81	61% remaining				
CC(C)OCCn1c(=S)[nH]c(=O)c2c1ccn2COC(=O)CCCCNC(=O)CN(C)C(=O)OC(C)(C)C.O=C(O)C(F)(F)F [Example 53]	92% remaining	3.43	98	0% remaining				
CC(C)OCCn1c(=S)[nH]c(=O)c2c1ccn2COC(=O)CCNC(=O)CN(C)C(=O)OC(C)(C)C.O=C(O)C(F)(F)F [Example 54]	93% remaining	3.14	87	74% remaining				
CNCC(=O)NCCCCC(=O)OCn1ccc2c1c(=O)[nH]c(=S)n2CCOC(C)C.O=C(O)C(F)(F)F [Example 55]	100%	0.244	98	1% remaining				
CNCC(=O)NCCC(=O)OCn1ccc2c1c(=O)[nH]c(=S)n2CCOC(C)C.O=C(O)C(F)(F)F [Example 56]	64% remaining	0.144	1	0% remaining				
CC(C)OCCn1c(=S)[nH]c(=O)c2c1ccn2COC(=O)CCCCNC(=O)CN(C)C(=O)CNC(=O)OC(C)(C)C.O=C(O)C(F)(F)F [Example 57]	81% remaining	0.28	96	0% remaining				
CC(C)OCCn1c(=S)[nH]c(=O)c2c1ccn2COC(=O)CCNC(=O)CN(C)C(=O)CNC(=O)OC(C)(C)C.O=C(O)C(F)(F)F [Example 58]	77% remaining	0.287	84	49% remaining				
CC(C)OCCn1c(=S)[nH]c(=O)c2c1ccn2COC(=O)CCCCNC(=O)CN(C)C(=O)CN.O=C(O)C(F)(F)F [Example 59]	95% remaining	< 0.254	98	11% remaining				
COC(=O)N1CCCC1C(=O)NCCC(=O)OCn1ccc2c1c(=O)[nH]c(=S)n2CCOC(C)C.O=C(O)C(F)(F)F (centres unmarked) [Example 60]	99% remaining	0.611	88	37% remaining				
COC(=O)N1CCCC1C(=O)NCCCCC(=O)OCn1ccc2c1c(=O)[nH]c(=S)n2CCOC(C)C.O=C(O)C(F)(F)F (centres unmarked) [Example 61]	98% remaining	0.971	92	0% remaining				
CC(C)OCCn1c(=S)[nH]c(=O)c2c1ccn2COC(=O)CCNC(=O)[C@@H]1CCCN1C(N)=O.O=C(O)C(F)(F)F [Example 62]	99% remaining	0.162	99	91% remaining				
CC(C)OCCn1c(=S)[nH]c(=O)c2c1ccn2COC(=O)CCCCNC(=O)[C@@H]1CCC(=O)N1C.O=C(O)C(F)(F)F [Example 63]	97% remaining	0.2	98	0% remaining				
CC(C)OCCn1c(=S)[nH]c(=O)c2c1ccn2COC(=O)CCNC(=O)[C@@H]1CCC(=O)N1C.O=C(O)C(F)(F)F [Example 64]	98% remaining	< 0.19	97	76% remaining				
CCOC(=O)N1CCCC1C(=O)NCCCCC(=O)OCn1ccc2c1c(=O)[nH]c(=S)n2CCOC(C)C.O=C(O)C(F)(F)F (centres unmarked) [Example 65]	87% remaining	1.86	89	20% remaining				
CCOC(=O)N1CCCC1C(=O)NCCC(=O)OCn1ccc2c1c(=O)[nH]c(=S)n2CCOC(C)C.O=C(O)C(F)(F)F (centres unmarked) [Example 66]	96% remaining	0.736	80	75% remaining				
CC(C)OCCn1c(=S)[nH]c(=O)c2c1ccn2COC(=O)CCCCNC(=O)C1CCCN1C(=O)OC(C)C.O=C(O)C(F)(F)F (centres unmarked) [Example 67]	92% remaining	2.84	93	57% remaining				
CC(C)OCCn1c(=S)[nH]c(=O)c2c1ccn2COC(=O)CCNC(=O)C1CCCN1C(=O)OC(C)C.O=C(O)C(F)(F)F (centres unmarked) [Example 68]	76% remaining	2.26	69	100%				
CC(C)OCCn1c(=S)n(COCC[Si](C)(C)C)c(=O)c2[nH]ccc21 [Example 70, 1-[2-(Propan-2-yloxy)ethyl]-2-sulfanylidene-3-{[2-(trimethylsilyl)ethoxy]methyl}-1H,2H,3H,4H,5H-pyrrolo[3,2-d]pyrimidin-4-one]					96	23.2	99	99
